Structures can show the parent of a compound that is named as a salt.
Tests used:
Calu-3 [1] = assay: relative viability EC50 (midpoint between 100% and the lowest measured viability); higher = less toxic; conditions: 72 h
Caco-2 [2] = assay: as above; conditions: 72 h
U2OS [3] = assay: as above; conditions: 72 h
Calu-3 [4] = assay: cell viability relative to DMSO; higher = less toxic; conditions: 72 h
Caco-2 [5] = assay: as above; conditions: 72 h
U2OS [6] = assay: as above; conditions: 72 h
HepG2 [7] = assay: as above; conditions: 72 h
Vero E6 [8] = assay: as above; conditions: 72 h
[9] = tested on: A549-ACE2 infected with SARS-CoV-2; assay: cell count relative to DMSO; higher = less toxic; conditions: 24 h
[10] = tested on: A549-ACE2 infected with SARS-CoV-2; assay: SARS-CoV-2 infection rate relative to DMSO; higher = more infection; conditions: 24 h
[11] = tested on: A549-ACE2 infected with SARS-CoV-2; assay: morphology score (similarity to uninfected cells); higher = more like uninfected cells; conditions: 24 h
A549-ACE2 = assay: drug-induced phospholipidosis relative to tamoxifen; higher = more phospholipidosis
Calu-3 [12] = assay: drug sensitivity score (DSS) for viability; higher = more toxic; extreme values may be limits of the assay; conditions: 72 h
Caco-2 [13] = assay: as above; conditions: 72 h
U2OS [14] = assay: as above; conditions: 72 h
HepG2 [15] = assay: as above; conditions: 72 h
Vero E6 [16] = assay: as above; conditions: 72 h
HepG2 [17] = assay: relative viability EC50 (midpoint between 100% and the lowest measured viability); higher = less toxic; conditions: 72 h
Vero E6 [18] = assay: as above; conditions: 72 h

CCN1CCN(c2ccc(Nc3cc(N(C)C(=O)Nc4c(Cl)c(OC)cc(OC)c4Cl)ncn3)cc2)CC1 [NVP-BGJ398]
Conditions	drug sensitivity score	relative viability EC50 [µM]
Caco-2 [2]	–	> 10
Caco-2 [13]	1.5	–
Calu-3 [1]	–	> 10
Calu-3 [12]	0	–
HepG2 [15]	1.1	–
U2OS [3]	–	> 10
U2OS [14]	0.1	–
Vero E6 [16]	2.4	–

Conditions	SARS-CoV-2 infection rate, [10] [%]	cell count, [9] [%]	cell viability, Caco-2 [5] [%]	cell viability, Calu-3 [4] [%]	cell viability, HepG2 [7] [%]	cell viability, U2OS [6] [%]	cell viability, Vero E6 [8] [%]	morphology score, [11]
1 nM	–	–	109	116	111	104	91.7	–
10 nM	–	–	102	102	100	95.1	101	–
100 nM	–	–	103	106	110	98.1	90.5	–
0.1 µM	99	91	–	–	–	–	–	0.05
0.3 µM	100	91	–	–	–	–	–	-0.02
1000 nM	–	–	95.4	99.4	106	89.5	90.8	–
1 µM	110	98	–	–	–	–	–	0.02
3 µM	97	93	–	–	–	–	–	0.2
10000 nM	–	–	76.1	89.8	68	90.5	66.2	–

drug-induced phospholipidosis [%], A549-ACE2
Conditions	0.3 µM	0.833333 µM	3.33333 µM	6.66667 µM	10 µM	30 µM
24 h	7.01	-3.2	0.41	0.28	8.33	40.8
48 h	5.03	-4.72	-2.05	0.17	2.69	25.9
72 h	3.12	-9.17	-6.95	-2.87	-1.22	27.1

C[C@H](N)Cc1c[nH]cn1 [alpha-methylhistamine-dihydrobromide-(S)-(+)]
Conditions	drug sensitivity score	relative viability EC50 [µM]
Caco-2 [2]	–	> 10
Caco-2 [13]	0	–
Calu-3 [1]	–	> 10
Calu-3 [12]	0	–
HepG2 [15]	0	–
HepG2 [17]	–	> 10
U2OS [3]	–	> 10
U2OS [14]	0	–
Vero E6 [16]	0	–
Vero E6 [18]	–	> 10

Conditions	SARS-CoV-2 infection rate, [10] [%]	cell count, [9] [%]	cell viability, Caco-2 [5] [%]	cell viability, Calu-3 [4] [%]	cell viability, HepG2 [7] [%]	cell viability, U2OS [6] [%]	cell viability, Vero E6 [8] [%]	morphology score, [11]
1 nM	–	–	93.5	100	96.1	98.9	94.7	–
10 nM	–	–	87.9	105	103	96.9	96.5	–
100 nM	–	–	95.2	98.2	93	101	92.7	–
0.3 µM	96	109	–	–	–	–	–	0.22
1000 nM	–	–	98.5	100	100.2	101	96.5	–
3 µM	101	104	–	–	–	–	–	0.16
10000 nM	–	–	96.6	101	94.8	99.2	105	–
10 µM	90	104	–	–	–	–	–	0.28
30 µM	104	98	–	–	–	–	–	-0.09

drug-induced phospholipidosis [%], A549-ACE2
Conditions	0.3 µM	0.833333 µM	3.33333 µM	6.66667 µM	10 µM	30 µM
24 h	1.4	-2.09	-0.4	-0.13	-1.06	2.88
48 h	2.76	-1.54	-1.15	-0.6	0.05	3.3
72 h	2.88	-1.77	-1.17	-0.807	0.33	4.01

S=C(S)N1CCCC1 [pyrrolidine-dithiocarbamate]
Conditions	drug sensitivity score	relative viability EC50 [µM]
Caco-2 [2]	–	0.368
Caco-2 [13]	14.2	–
Calu-3 [1]	–	3.14
Calu-3 [12]	3.2	–
HepG2 [15]	4.4	–
HepG2 [17]	–	3.53
U2OS [14]	2.8	–
Vero E6 [16]	1.6	–

Conditions	SARS-CoV-2 infection rate, [10] [%]	cell count, [9] [%]	cell viability, Caco-2 [5] [%]	cell viability, Calu-3 [4] [%]	cell viability, HepG2 [7] [%]	cell viability, U2OS [6] [%]	cell viability, Vero E6 [8] [%]	morphology score, [11]
1 nM	–	–	101	93.7	95.5	101	102	–
10 nM	–	–	101	94.2	93.4	99.3	106	–
100 nM	–	–	90.2	102	96	102	101	–
0.1 µM	108	101	–	–	–	–	–	-0.05
0.3 µM	93	105	–	–	–	–	–	0.28
1000 nM	–	–	30.4	99.8	106	95.4	103	–
1 µM	85	103	–	–	–	–	–	0.32
3 µM	83	104	–	–	–	–	–	0.39
10000 nM	–	–	15.7	41.7	13.1	58.4	63	–

drug-induced phospholipidosis [%], A549-ACE2
Conditions	0.3 µM	0.833333 µM	6.66667 µM	10 µM	30 µM
24 h	1.65	-0.57	5.92	3.64	-1.59
48 h	1.79	0.61	–	–	–
72 h	3.8	0.446	–	–	–

— the supplement of paper PMC13380429
